Active and inactive are the calls of the source. No cut-off for these calls is given here.
What was measured:
Shigella flexneri [1] = assay: Antimicrobial activity against Shigella flexneri at 5 ug/disc after 24 hr by disk diffusion method; type: functional; conditions: read-out: IZ
Klebsiella pneumoniae [2] = assay: Antimicrobial activity against Klebsiella pneumoniae at 5 ug/disk after 24 hr by disk diffusion method; conditions: read-out: IZ
Staphylococcus aureus [3] = assay: Antimicrobial activity against Staphylococcus aureus at 5 ug/disc after 24 hr by disk diffusion method; conditions: read-out: IZ
Salmonella typhi [4] = assay: Antimicrobial activity against Salmonella enterica subsp. enterica serovar Typhi at 5 ug/disk after 24 hr by disk diffusion method; type: functional; conditions: read-out: IZ
Vibrio cholerae [5] = assay: Antimicrobial activity against Vibrio cholerae at 5 ug/disc after 24 hr by disk diffusion method; type: functional; conditions: read-out: IZ
Streptococcus [6] = assay: Antimicrobial activity against beta-hemolytic Streptococcus at 5 ug/disk after 24 hr by disk diffusion method; type: functional; conditions: read-out: IZ
Pseudomonas [7] = assay: Antimicrobial activity against Pseudomonas at 5 ug/disk after 24 hr by disk diffusion method; type: functional; conditions: read-out: IZ
Rhizopus [8] = assay: Antimicrobial activity against Rhizopus at 100 U/disk after 72 to 96 hr by disk diffusion method; type: functional
Nannizzia gypsea [9] = assay: Antimicrobial activity against Microsporum gypseum at 100 U/disk after 72 to 96 hr by disk diffusion method; type: functional
Mucor [10] = assay: Antimicrobial activity against Mucor at 100 U/disk after 72 to 96 hr by disk diffusion method; type: functional
Aspergillus flavus [11] = assay: Antimicrobial activity against Aspergillus flavus at 100 U/disk after 72 to 96 hr by disk diffusion method; type: functional
Salmonella typhi [12] = assay: Antimicrobial activity against Salmonella enterica subsp. enterica serovar Typhi at 200 ppm after 24 hr by disk diffusion method; type: functional; conditions: read-out: IZ
Vibrio cholerae [13] = assay: Antimicrobial activity against Vibrio cholerae at 500 ppm after 24 hr by disk diffusion method; type: functional; conditions: read-out: IZ
Nannizzia gypsea [14] = assay: Antimicrobial activity against Microsporum gypseum at 200 ppm after 72 to 96 hr by disk diffusion method; type: functional; conditions: read-out: IZ
Rhizopus [15] = assay: Antimicrobial activity against Rhizopus at 200 ppm after 72 to 96 hr by disk diffusion method; type: functional; conditions: read-out: IZ
Klebsiella pneumoniae [16] = assay: Antimicrobial activity against Klebsiella pneumoniae at 500 ppm after 24 hr by disk diffusion method; type: functional; conditions: read-out: IZ
Streptococcus [17] = assay: Antimicrobial activity against beta-hemolytic Streptococcus at 100 ppm after 24 hr by disk diffusion method; type: functional; conditions: read-out: IZ
Salmonella typhi [18] = assay: Antimicrobial activity against Salmonella enterica subsp. enterica serovar Typhi at 500 ppm after 24 hr by disk diffusion method; type: functional; conditions: read-out: IZ
Aspergillus flavus [19] = assay: Antimicrobial activity against Aspergillus flavus at 200 ppm after 72 to 96 hr by disk diffusion method; type: functional; conditions: read-out: IZ
Nannizzia gypsea [20] = assay: Antimicrobial activity against Microsporum gypseum at 500 ppm after 72 to 96 hr by disk diffusion method; type: functional; conditions: read-out: IZ
Salmonella typhi [21] = assay: Antimicrobial activity against Salmonella enterica subsp. enterica serovar Typhi at 100 ppm after 24 hr by disk diffusion method; type: functional
Mucor [22] = assay: Antimicrobial activity against Mucor at 200 ppm after 72 to 96 hr by disk diffusion method; type: functional; conditions: read-out: IZ
Escherichia coli [23] = assay: Antimicrobial activity against Escherichia coli at 500 ppm after 24 hr by disk diffusion method; type: functional; conditions: read-out: IZ
Pseudomonas [24] = assay: Antimicrobial activity against Pseudomonas at 100 ppm after 24 hr by disk diffusion method; type: functional; conditions: read-out: IZ
Escherichia coli [25] = assay: Antimicrobial activity against Escherichia coli at 200 ppm after 24 hr by disk diffusion method; type: functional; conditions: read-out: IZ
Shigella flexneri [26] = assay: Antimicrobial activity against Shigella flexneri at 500 ppm after 24 hr by disk diffusion method; type: functional; conditions: read-out: IZ
Vibrio cholerae [27] = assay: Antimicrobial activity against Vibrio cholerae at 200 ppm after 24 hr by disk diffusion method; type: functional; conditions: read-out: IZ
Pseudomonas [28] = assay: Antimicrobial activity against Pseudomonas at 500 ppm after 24 hr by disk diffusion method; type: functional; conditions: read-out: IZ
Streptococcus [29] = assay: Antimicrobial activity against beta-hemolytic Streptococcus at 500 ppm after 24 hr by disk diffusion method; type: functional; conditions: read-out: IZ
Pseudomonas [30] = assay: Antimicrobial activity against Pseudomonas at 200 ppm after 24 hr by disk diffusion method; type: functional; conditions: read-out: IZ
Klebsiella pneumoniae [31] = assay: Antimicrobial activity against Klebsiella pneumoniae at 200 ppm after 24 hr by disk diffusion method; type: functional; conditions: read-out: IZ
Klebsiella pneumoniae [32] = assay: Antimicrobial activity against Klebsiella pneumoniae at 100 ppm after 24 hr by disk diffusion method; type: functional; conditions: read-out: IZ
Shigella flexneri [33] = assay: Antimicrobial activity against Shigella flexneri at 200 ppm after 24 hr by disk diffusion method; type: functional; conditions: read-out: IZ
Mucor [34] = assay: Antimicrobial activity against Mucor at 100 ppm after 72 to 96 hr by disk diffusion method; type: functional
Staphylococcus aureus [35] = assay: Antimicrobial activity against Staphylococcus aureus at 200 ppm after 24 hr by disk diffusion method; type: functional; conditions: read-out: IZ
Staphylococcus aureus [36] = assay: Antimicrobial activity against Staphylococcus aureus at 500 ppm after 24 hr by disk diffusion method; type: functional; conditions: read-out: IZ
Nannizzia gypsea [37] = assay: Antimicrobial activity against Microsporum gypseum at 100 ppm after 72 to 96 hr by disk diffusion method; type: functional
Vibrio cholerae [38] = assay: Antimicrobial activity against Vibrio cholerae at 100 ppm after 24 hr by disk diffusion method; type: functional
Mucor [39] = assay: Antimicrobial activity against Mucor at 500 ppm after 72 to 96 hr by disk diffusion method; type: functional; conditions: read-out: IZ
Staphylococcus aureus [40] = assay: Antimicrobial activity against Staphylococcus aureus at 100 ppm after 24 hr by disk diffusion method; type: functional; conditions: read-out: IZ
Aspergillus flavus [41] = assay: Antimicrobial activity against Aspergillus flavus at 500 ppm after 72 to 96 hr by disk diffusion method; type: functional; conditions: read-out: IZ
Aspergillus flavus [42] = assay: Antimicrobial activity against Aspergillus flavus at 100 ppm after 72 to 96 hr by disk diffusion method; type: functional; conditions: read-out: IZ
Rhizopus [43] = assay: Antimicrobial activity against Rhizopus at 100 ppm after 72 to 96 hr by disk diffusion method; type: functional
Rhizopus [44] = assay: Antimicrobial activity against Rhizopus at 500 ppm after 72 to 96 hr by disk diffusion method; type: functional; conditions: read-out: IZ
Escherichia coli [45] = assay: Antimicrobial activity against Escherichia coli at 100 ppm after 24 hr by disk diffusion method; type: functional
Streptococcus [46] = assay: Antimicrobial activity against beta-hemolytic Streptococcus at 200 ppm after 24 hr by disk diffusion method; type: functional; conditions: read-out: IZ
Shigella flexneri [47] = assay: Antimicrobial activity against Shigella flexneri at 100 ppm after 24 hr by disk diffusion method; type: functional

SMILES: O=C(O)c1cn(C2CC2)c2cc(N3CCNCC3)c(F)cc2c1=O [CIPROFLOXACIN]
- zone of inhibition at 5 µg/disc (Shigella flexneri [1]): 23 mm
- zone of inhibition at 5 µg/disc (Klebsiella pneumoniae [2]): 26 mm
- zone of inhibition at 5 µg/disc (Staphylococcus aureus [3]): 25 mm
- zone of inhibition at 5 µg/disc (Salmonella typhi [4]): 22 mm
- zone of inhibition at 5 µg/disc (Vibrio cholerae [5]): 23 mm
- zone of inhibition at 5 µg/disc (Streptococcus [6]): 28 mm
- zone of inhibition at 5 µg/disc (Pseudomonas [7]): 23 mm

SMILES: OC(Cn1cncn1)(Cn1cncn1)c1ccc(F)cc1F [FLUCONAZOLE]
- inhibition zone (IZ) (Rhizopus [8]): 20 mm
- inhibition zone (IZ) (Nannizzia gypsea [9]): 20 mm
- inhibition zone (IZ) (Mucor [10]): 20 mm
- inhibition zone (IZ) (Aspergillus flavus [11]): 20 mm

SMILES: O=C(/C=C/c1ccccc1)c1ccc(N2CCOCC2)cc1
- zone of inhibition at 200 ppm (Salmonella typhi [12]): 12 mm
- zone of inhibition at 500 ppm (Vibrio cholerae [13]): 17 mm
- zone of inhibition at 200 ppm (Nannizzia gypsea [14]): 12 mm
- zone of inhibition at 200 ppm (Rhizopus [15]): 12 mm
- zone of inhibition at 500 ppm (Klebsiella pneumoniae [16]): 22 mm
- zone of inhibition at 100 ppm (Streptococcus [17]): 12 mm
- zone of inhibition at 500 ppm (Salmonella typhi [18]): 17 mm
- zone of inhibition at 200 ppm (Aspergillus flavus [19]): 17 mm
- zone of inhibition at 500 ppm (Nannizzia gypsea [20]): 17 mm
- inhibition zone (IZ) (Salmonella typhi [21]): inactive
- zone of inhibition at 200 ppm (Mucor [22]): 12 mm
- zone of inhibition at 500 ppm (Escherichia coli [23]): 17 mm
- zone of inhibition at 100 ppm (Pseudomonas [24]): 17 mm
- zone of inhibition at 200 ppm (Escherichia coli [25]): 17 mm
- zone of inhibition at 500 ppm (Shigella flexneri [26]): 22 mm
- zone of inhibition at 200 ppm (Vibrio cholerae [27]): 17 mm
- zone of inhibition at 500 ppm (Pseudomonas [28]): 30 mm
- zone of inhibition at 500 ppm (Streptococcus [29]): 22 mm
- zone of inhibition at 200 ppm (Pseudomonas [30]): 22 mm
- zone of inhibition at 200 ppm (Klebsiella pneumoniae [31]): 12 mm
- zone of inhibition at 100 ppm (Klebsiella pneumoniae [32]): 12 mm
- zone of inhibition at 200 ppm (Shigella flexneri [33]): 17 mm
- inhibition zone (IZ) (Mucor [34]): inactive
- zone of inhibition at 200 ppm (Staphylococcus aureus [35]): 17 mm
- zone of inhibition at 500 ppm (Staphylococcus aureus [36]): 22 mm
- inhibition zone (IZ) (Nannizzia gypsea [37]): inactive
- inhibition zone (IZ) (Vibrio cholerae [38]): inactive
- zone of inhibition at 500 ppm (Mucor [39]): 17 mm
- zone of inhibition at 100 ppm (Staphylococcus aureus [40]): 12 mm
- zone of inhibition at 500 ppm (Aspergillus flavus [41]): 17 mm
- zone of inhibition at 100 ppm (Aspergillus flavus [42]): 12 mm
- inhibition zone (IZ) (Rhizopus [43]): inactive
- zone of inhibition at 500 ppm (Rhizopus [44]): 17 mm
- inhibition zone (IZ) (Escherichia coli [45]): inactive
- zone of inhibition at 200 ppm (Streptococcus [46]): 17 mm
- inhibition zone (IZ) (Shigella flexneri [47]): inactive

Reference: ChEMBL document CHEMBL3045021, “Synthesis, antibacterial, and antifungal activities of biolabile (E)-1-(4-morpholinophenyl)-3-aryl-prop-2-en-1-ones” (2009)
